Results: patent US9981969B2, “Imidazole derivatives and methods of use thereof for improving the pharmacokinetics of a drug” (MERCK SHARP & DOHME CORP., priority 2013, dated 2018)

What was measured:
human CYP11B2 = target: T1, human CYP11B2 (Homo sapiens, UniProt P19099); test: IC50 vs CYP11B2 by measurement of aldosterone synthesis in V79 cells; type: cell-based; conditions: V79 cells expressing human CYP11B2, 750 nM DOC, aldosterone HTRF
T1 construct: expressed in transfected cells
T1 sequence (P19099 25-503): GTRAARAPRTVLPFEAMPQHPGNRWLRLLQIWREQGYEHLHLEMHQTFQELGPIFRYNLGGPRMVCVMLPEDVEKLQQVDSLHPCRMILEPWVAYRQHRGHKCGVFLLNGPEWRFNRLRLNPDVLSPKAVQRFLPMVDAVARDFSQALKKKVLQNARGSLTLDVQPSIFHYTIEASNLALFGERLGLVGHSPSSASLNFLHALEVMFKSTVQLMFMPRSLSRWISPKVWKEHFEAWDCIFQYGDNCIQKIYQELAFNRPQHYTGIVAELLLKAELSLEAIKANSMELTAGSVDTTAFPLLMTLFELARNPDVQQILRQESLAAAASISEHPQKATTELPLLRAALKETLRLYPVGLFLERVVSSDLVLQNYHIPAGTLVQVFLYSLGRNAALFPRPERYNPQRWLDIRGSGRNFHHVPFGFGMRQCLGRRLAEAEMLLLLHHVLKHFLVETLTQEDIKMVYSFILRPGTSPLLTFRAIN
Protocol: (§1) This assay was performed in a standard 384-well plate design using cultured V79 cells stably expressing human CYP11B1 or human CYP11B2. Test compounds at 10 concentrations (for example, 10000, 3333.3, 1111.1, 370.4, 123.5, 41.2, 13.7, 4.6, 1.5 and 0.5 nM) were added in 384-well plate after the cell-seeding procedure. The incubation substrate contains 1500 nM RSS for CYP11B1 assay/750 nM DOC for CYP11B2 assay. The Cortisol/Aldosterone production of cell culture supernatant was determined by Cortisol/Aldosterone HTRF kit after for about 15 hours incubation at RT (protect from light). IC50 (nM) values were calculated from the percent inhibition observed for each test compound at 10 concentrations.
(§2) The assay plate was read using Envision (Perkin Elmer, Waltham, Mass.) at 665 nm and 590 nm (using Filter Barcode of 217#, 205#; Mirror Barcode of 446#).
(§3) Data are analyzed using Assay Data Analyzer. All ratio data (665 nm/590 nm) are back calculated according to the standard curve, resulting in Cortisol/Aldosterone concentrations. IC50 (nM) values are reported as the Inflection Point (IP) of a four parameter fit of the titration data.
(§4) The following equation was used to calculate the % inhibition: % Activity=100×{1−(Sample_back calculated Cortisol/Aldosterone concentration−LC_back calculated Cortisol/Aldosterone concentration)/(HC_back calculated Cortisol/Aldosterone concentration−LC_back calculated Cortisol/Aldosterone concentration)} Curve Fitting: Four Parameter Logistic: […]

CYP1A2 = target: T2, CYP1A2 (Homo sapiens, UniProt P05177); test: Cocktail assay for CYPs in human liver microsomes, phenacetin O-deethylation (1A2); type: biochemical; conditions: 10 μM phenacetin, 10 min at 37° C.
T2 construct: 0.1 mg/mL protein human liver microsomes (BD Gentest); tissue BD Gentest; host or cells: human liver microsomes
T2 sequence (P05177 1-516): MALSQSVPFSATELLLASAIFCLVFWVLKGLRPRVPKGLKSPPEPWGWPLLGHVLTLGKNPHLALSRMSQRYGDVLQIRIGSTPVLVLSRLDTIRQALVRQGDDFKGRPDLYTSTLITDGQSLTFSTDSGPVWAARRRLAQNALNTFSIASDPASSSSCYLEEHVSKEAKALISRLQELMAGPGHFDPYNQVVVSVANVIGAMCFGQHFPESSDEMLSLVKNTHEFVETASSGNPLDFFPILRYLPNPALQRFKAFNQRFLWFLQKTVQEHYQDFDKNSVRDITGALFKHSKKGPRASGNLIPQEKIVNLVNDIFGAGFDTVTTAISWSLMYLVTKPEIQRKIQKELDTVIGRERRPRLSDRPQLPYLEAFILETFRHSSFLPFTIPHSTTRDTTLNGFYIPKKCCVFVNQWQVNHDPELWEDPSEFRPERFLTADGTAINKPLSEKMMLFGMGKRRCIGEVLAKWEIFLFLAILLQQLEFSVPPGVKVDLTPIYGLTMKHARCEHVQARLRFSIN
Protocol: (§5) This assay was performed in a standard 96-well plate design. IC50 values were calculated from the percent inhibition observed for each test compound at 6 concentrations (for example, 0.0032, 0.016, 0.08, 0.4, 2 and 10 μM). The incubation substrate mix contains 10 μM phenacetin (1A2), 5 μM diclofenac (2C9), 30 μM mephenytoin (2C19), 5 μM dextromethorphan (2D6) and 2 μM midazolam (3A4), 0.1 mg/mL protein human liver microsomes (BD Gentest), 1 mM NAPDH, 3.3 mM MgCl2 and 100 mM potassium phosphate buffer (pH 7.4). The production of the metabolite of each probe substrate was determined after incubation for 10 min at 37° C. Quantitation of the metabolite peak area ratio against an internal standard (tolbutamide) was determined by LC/MS/MS analysis following acetonitrile treatment of the incubations.
(§6) Samples were analyzed in the MRM mode with a SCIEX API-4000 mass spectrometer (Applied Biosystems, Foster City, Calif.), with a Shimadzu LC-20 AD pump (Shimadzu corporation, Kyoto, JP) and a CTC PAL autosampler (Agilent Technologies, Switzerland). A Phenomenex, Luna, 5 μm, 100A, 2.00×30 mm HPLC column was used for the separation. The mobile phases were: (A) 0.1% formic acid in water and (B) 0.1% formic acid in acetonitrile. The binary gradient was as follows. AutoSampler: CTC PAL
(§7) The peak area ratio of the analyte to the internal standard was used to quantify the metabolite. The values of peak area ratios in the presence of test compound were compared to those of maximum or minimum controls and were expressed as % inhibition by interpolating between the maximum and minimum peak area ratios. Incubations with no inhibitor were defined as the maxima. The following equation was used to calculate the % inhibition: [1−[(X−Low control)/(High control−Low control)]]*100 For the IC50 calculation, SigmaPlot was used to plot the mean % inhibition versus the test compound concentrations and for non-linear regression analysis of the data. Depending on the range of data points defining the inhibition curve, the data may have been fit to the 4-parameter logistic equation.

CYP2C9 = target: T3, CYP2C9 (Homo sapiens, UniProt P11712); test: Cocktail assay for CYPs in human liver microsomes, diclofenac 4′-hydroxylation (2C9); type: biochemical; conditions: 5 μM diclofenac, 10 min at 37° C.
T3 construct: 0.1 mg/mL protein human liver microsomes (BD Gentest); tissue BD Gentest; host or cells: human liver microsomes
Protocol: as §5, §6, §7

CYP2D6 = target: T4, CYP2D6 (Homo sapiens, UniProt P10635); test: Cocktail assay for CYPs in human liver microsomes, dextromethorphan O-demethylation (2D6); type: biochemical; conditions: 5 μM dextromethorphan, 10 min at 37° C.
T4 construct: 0.1 mg/mL protein human liver microsomes (BD Gentest); tissue BD Gentest; host or cells: human liver microsomes
Protocol: as §5, §6, §7

CYP2C19 = target: T5, CYP2C19 (Homo sapiens, UniProt P33261); test: Cocktail assay for CYPs in human liver microsomes, mephenytoin 4′-hydroxylation (2C19); type: biochemical; conditions: 30 μM mephenytoin, 10 min at 37° C.
T5 construct: 0.1 mg/mL protein human liver microsomes (BD Gentest); tissue BD Gentest; host or cells: human liver microsomes
Protocol: as §5, §6, §7

CYP3A4 = target: T6, CYP3A4 (Homo sapiens, UniProt P08684); test: Cocktail assay for CYPs in human liver microsomes, midazolam 1′-hydroxylation (3A4); type: biochemical; conditions: 2 μM midazolam, 10 min at 37° C.
T6 construct: 0.1 mg/mL protein human liver microsomes (BD Gentest); tissue BD Gentest; host or cells: human liver microsomes
Protocol: as §5, §6, §7

human CYP11B1 = target: T7, human CYP11B1 (Homo sapiens, UniProt P15538); test: IC50 vs CYP11B1 by measurement of cortisol synthesis in V79 cells; type: cell-based; conditions: V79 cells expressing human CYP11B1, 1500 nM RSS, cortisol HTRF
T7 construct: expressed in transfected cells
T7 sequence (P15538 25-503): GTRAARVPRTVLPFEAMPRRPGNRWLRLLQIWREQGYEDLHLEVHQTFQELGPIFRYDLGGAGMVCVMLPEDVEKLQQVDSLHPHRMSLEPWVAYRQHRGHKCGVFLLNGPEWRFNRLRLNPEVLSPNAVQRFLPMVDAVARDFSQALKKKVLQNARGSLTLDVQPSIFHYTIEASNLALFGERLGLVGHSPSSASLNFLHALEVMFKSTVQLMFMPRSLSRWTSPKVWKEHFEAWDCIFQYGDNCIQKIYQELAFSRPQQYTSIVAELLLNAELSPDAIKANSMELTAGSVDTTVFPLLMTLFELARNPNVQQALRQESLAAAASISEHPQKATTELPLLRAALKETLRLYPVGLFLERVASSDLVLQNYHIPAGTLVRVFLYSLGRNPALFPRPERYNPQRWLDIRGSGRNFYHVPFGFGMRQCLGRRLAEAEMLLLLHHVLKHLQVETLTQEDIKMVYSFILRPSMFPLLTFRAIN
Protocol: as §1, §2, §3, §4

T4 sequence (P10635 whole entry): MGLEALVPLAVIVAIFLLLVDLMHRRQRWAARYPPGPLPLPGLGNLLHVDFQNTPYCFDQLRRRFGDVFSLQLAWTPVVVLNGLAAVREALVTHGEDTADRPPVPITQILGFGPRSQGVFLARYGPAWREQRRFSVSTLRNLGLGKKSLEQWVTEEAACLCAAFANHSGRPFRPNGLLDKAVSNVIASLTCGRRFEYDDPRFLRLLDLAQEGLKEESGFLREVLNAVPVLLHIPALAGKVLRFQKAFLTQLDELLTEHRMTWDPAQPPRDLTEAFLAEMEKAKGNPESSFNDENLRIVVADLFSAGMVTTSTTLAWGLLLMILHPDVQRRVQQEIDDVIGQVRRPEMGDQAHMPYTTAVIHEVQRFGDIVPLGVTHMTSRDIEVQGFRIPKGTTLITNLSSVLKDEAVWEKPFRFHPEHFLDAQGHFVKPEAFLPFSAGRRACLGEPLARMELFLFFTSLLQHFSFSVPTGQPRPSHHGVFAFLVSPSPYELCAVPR
T5 sequence (P33261 whole entry): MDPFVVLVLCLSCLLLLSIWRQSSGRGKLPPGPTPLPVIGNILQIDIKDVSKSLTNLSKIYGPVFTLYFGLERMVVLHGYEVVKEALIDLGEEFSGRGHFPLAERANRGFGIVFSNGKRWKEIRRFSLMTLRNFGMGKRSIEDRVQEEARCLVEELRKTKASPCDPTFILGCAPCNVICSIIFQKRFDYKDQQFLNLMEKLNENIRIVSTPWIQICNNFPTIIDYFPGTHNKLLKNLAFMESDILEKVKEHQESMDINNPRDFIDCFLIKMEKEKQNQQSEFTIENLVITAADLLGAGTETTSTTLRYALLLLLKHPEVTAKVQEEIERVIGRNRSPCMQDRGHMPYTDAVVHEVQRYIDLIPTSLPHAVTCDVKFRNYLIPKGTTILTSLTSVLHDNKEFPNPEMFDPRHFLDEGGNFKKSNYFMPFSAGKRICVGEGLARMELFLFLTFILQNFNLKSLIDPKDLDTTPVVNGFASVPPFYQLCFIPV
T6 sequence (P08684 whole entry): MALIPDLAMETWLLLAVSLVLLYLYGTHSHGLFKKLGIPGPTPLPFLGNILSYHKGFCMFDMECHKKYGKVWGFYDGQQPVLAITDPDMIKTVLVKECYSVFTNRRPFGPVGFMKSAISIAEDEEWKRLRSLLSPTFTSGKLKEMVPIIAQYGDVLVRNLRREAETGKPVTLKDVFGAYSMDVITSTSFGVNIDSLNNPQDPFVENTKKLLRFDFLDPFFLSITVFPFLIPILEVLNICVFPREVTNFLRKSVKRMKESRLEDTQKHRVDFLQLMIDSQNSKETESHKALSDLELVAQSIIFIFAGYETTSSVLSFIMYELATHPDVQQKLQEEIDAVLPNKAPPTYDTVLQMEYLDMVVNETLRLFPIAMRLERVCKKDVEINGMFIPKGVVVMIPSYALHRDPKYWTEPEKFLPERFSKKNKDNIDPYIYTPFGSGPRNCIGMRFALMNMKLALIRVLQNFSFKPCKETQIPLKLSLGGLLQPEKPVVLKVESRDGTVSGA
T3 sequence (P11712 whole entry): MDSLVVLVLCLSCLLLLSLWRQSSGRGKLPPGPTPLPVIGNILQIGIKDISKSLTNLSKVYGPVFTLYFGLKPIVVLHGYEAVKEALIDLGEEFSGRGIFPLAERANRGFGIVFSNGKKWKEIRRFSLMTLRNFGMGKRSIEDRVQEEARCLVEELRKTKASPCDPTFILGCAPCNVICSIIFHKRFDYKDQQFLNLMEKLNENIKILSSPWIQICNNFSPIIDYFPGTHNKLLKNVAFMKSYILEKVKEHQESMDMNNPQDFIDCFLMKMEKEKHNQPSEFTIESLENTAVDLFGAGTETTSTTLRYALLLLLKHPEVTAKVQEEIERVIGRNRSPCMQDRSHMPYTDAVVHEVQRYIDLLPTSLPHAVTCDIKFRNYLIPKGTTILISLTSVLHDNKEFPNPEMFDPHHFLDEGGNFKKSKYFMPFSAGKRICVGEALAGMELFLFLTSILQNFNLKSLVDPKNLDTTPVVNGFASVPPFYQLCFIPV

| SMILES | IC50 (human CYP11B2) [µM] | IC50 (CYP1A2) [µM] | IC50 (CYP2C9) [µM] | IC50 (CYP2D6) [µM] | IC50 (CYP2C19) [µM] | IC50 (CYP3A4) [µM] | IC50 (human CYP11B1) [µM] |
| --- | --- | --- | --- | --- | --- | --- | --- |
| C[C@@H](c1ccccc1-c1ccc(F)cc1)n1cncc1C(=O)N1CCC(N2CCn3ncnc3C2)CC1 [Compound 27] | 23.9 | > 10 | > 10 | > 10 | > 10 | 0.0058 | 11.1 |
| C[C@@H](c1ccccc1-c1ccc(F)cc1)n1cncc1C(=O)N1CC[C@@H](N2CCOCC2)[C@@H](F)C1 [Compound 29] | > 50 | > 10 | > 10 | 6.22 | > 10 | 0.0063 | 22 |
| C[C@H]1CN(C(=O)c2cncn2[C@@H](C)c2ccccc2-c2ccc(F)cc2)CC[C@H]1N1CCNC(=O)C1 [Compound 31] | > 50 | > 10 | > 10 | 9.6 | > 10 | 0.0097 | 28.1 |
| CO[C@H]1CN(C(=O)c2cncn2[C@@H](C)c2ccccc2-c2ccc(F)cc2)CC[C@@H]1N1CCOC1=O [Compound 33] | 23.6 | > 10 | > 10 | 7.36 | > 10 | 0.0091 | > 50 |
| C[C@@H](c1ccccc1-c1cc(F)cc(F)c1)n1cncc1C(=O)N1CCC2NCCO[C@@H]2C1 (stereo partly shown) [Compound 37] | > 50 | > 10 | > 10 | > 10 | > 10 | 0.0097 | 19.7 |
| C[C@@H](c1ccccc1-c1ccc(F)cc1F)n1cncc1C(=O)N1CCC2NCCO[C@@H]2C1 (stereo partly shown) [Compound 38] | > 50 | > 10 | > 10 | > 10 | > 10 | 0.0089 | 25.3 |
| C[C@@H](c1ccccc1-c1ccc(F)c(F)c1F)n1cncc1C(=O)N1CCC2NCCO[C@@H]2C1 (stereo partly shown) [Compound 39] | > 50 | > 10 | > 10 | 9.45 | > 10 | 0.0048 | 14.6 |
| CCOc1ncccc1-c1ccccc1[C@H](C)n1cncc1C(=O)N1CCC2NCCO[C@@H]2C1 (stereo partly shown) [Compound 40] | 25.9 | > 10 | > 10 | > 10 | > 10 | 0.0095 | 33.3 |

The remaining lines, values ahead:

| IC50 (human CYP11B2) [µM] | IC50 (CYP1A2) [µM] | IC50 (CYP2C9) [µM] | IC50 (CYP2D6) [µM] | IC50 (CYP2C19) [µM] | IC50 (CYP3A4) [µM] | IC50 (human CYP11B1) [µM] | SMILES |
| --- | --- | --- | --- | --- | --- | --- | --- |
| > 50 | > 10 | > 10 | > 10 | > 10 | 0.0054 | 14.9 | C[C@@H](c1ccccc1-c1ccc(F)cc1)n1cncc1C(=O)N1CCC(N2CCc3nccnc3C2)CC1 [Compound 28] |
| 41.5 | > 10 | > 10 | > 10 | > 10 | 0.0058 | > 50 | C[C@@H](c1ccccc1-c1ccc(F)cc1)n1cncc1C(=O)N1CC[C@@H](N2CCNC(=O)C2)[C@@H](F)C1 [Compound 30] |
| > 50 | > 10 | > 10 | 8.38 | > 10 | 0.0042 | 22.5 | C[C@H]1CN(C(=O)c2cncn2[C@@H](C)c2ccccc2-c2ccc(F)cc2)CC[C@H]1N1CC[C@@H](O)C1 [Compound 32] |
| > 50 | > 10 | > 10 | 8.05 | > 10 | 0.0068 | 21.2 | C[C@@H](c1ccccc1-c1ccccc1)n1cncc1C(=O)N1CCC2NCCO[C@@H]2C1 (stereo partly shown) [Compound 34] |
| 25.8 | > 10 | > 10 | 9.1 | > 10 | 0.0055 | 20.4 | COCc1ccccc1-c1ccccc1[C@H](C)n1cncc1C(=O)N1CCC2NCCO[C@@H]2C1 (stereo partly shown) [Compound 35] |
| > 50 | > 10 | > 10 | > 10 | > 10 | 0.0096 | 32.7 | C[C@@H](c1ccccc1-c1cccc(F)c1)n1cncc1C(=O)N1CCC2NCCO[C@@H]2C1 (stereo partly shown) [Compound 36] |
| > 50 | > 10 | > 10 | 7.48 | > 10 | 0.0071 | 42.2 | C[C@@H](c1ccccc1-c1ccc(Cl)nc1)n1cncc1C(=O)N1CCC2NCCO[C@@H]2C1 (stereo partly shown) [Compound 41] |
| > 50 | > 10 | > 10 | > 10 | > 10 | 0.0047 | 5.62 | C[C@@H](c1ccccc1-c1ccccc1OC(F)(F)F)n1cncc1C(=O)N1CCC2NCCO[C@@H]2C1 (stereo partly shown) [Compound 42] |
